Measurements reported in US20230002348A1 (ILDONG PHARMACEUTICAL CO., LTD., priority 2019, published 2023).
Like-named read-outs stand apart in the source and are kept apart here.

Molecular target: T1, GLP-1 receptor (Homo sapiens, UniProt P43220)
T1 construct: expressed in transfected cells; host or cells: CHO-K1
Experiment: cAMP assay (HTRF) in GLP-1 receptor CHO-K1 cells
Type: cell-based
Conditions: for Emax: CHO-K1, cAMP stimulation ratio
Procedure: The cAMP assay test was performed according to a method optimized based on a protocol provided by cAMP assay kit manufacturer (CISBIO). […] 54, of the compounds according to the Examples 1, 2, 5, 8, 12, 13, 15, 16, 19, 20, 23, 29, 32, 37, 39 and 43 at the concentration of 0, 1, 10, 100, 1000, 10000 nM was treated to each of the wells of the other plates, respectively. The cells were incubated at room temperature for 7 minutes. A cAMP-d2 conjugate reagent was prepared by mixing a cAMP conjugate with an elution buffer at a ratio of 1:4. An anti-cAMP cryptate conjugate reagent was prepared by mixing a […] with an elution buffer at a ratio of 1:4. Then, 5 μL, of the cAMP-d2 conjugate reagent was added to each of the wells. Subsequently, 5 μL, of the anti-cAMP cryptate conjugate reagent was added to each of the wells. After incubation of the cells at room temperature for 1 hour, HTRF signals at wavelengths of 665 nm and 620 nm of the culture were measured using a FlexStaton 3 (Molecular Devices) instrument. The ratio of 665/620 was calculated from the measured values at 665 nm and 620 nm with regard to Exendin-4 and the compounds of the Examples, respectively.

[1] = 665/620 ratio with Exendin-4 converted to 100%

T1 sequence (P43220 24-463, species assumed): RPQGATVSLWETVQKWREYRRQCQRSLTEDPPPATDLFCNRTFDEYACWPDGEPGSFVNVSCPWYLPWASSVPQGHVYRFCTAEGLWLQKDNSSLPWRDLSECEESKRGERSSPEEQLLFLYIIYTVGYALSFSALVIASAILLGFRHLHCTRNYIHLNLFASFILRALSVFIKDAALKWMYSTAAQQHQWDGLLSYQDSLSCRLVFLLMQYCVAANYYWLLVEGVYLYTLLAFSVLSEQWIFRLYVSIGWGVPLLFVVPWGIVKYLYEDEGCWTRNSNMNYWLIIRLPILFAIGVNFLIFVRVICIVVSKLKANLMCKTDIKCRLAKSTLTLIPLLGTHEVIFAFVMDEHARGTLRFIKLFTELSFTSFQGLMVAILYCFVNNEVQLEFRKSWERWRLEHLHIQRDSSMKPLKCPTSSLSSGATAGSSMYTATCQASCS

EC50 [nM]	Emax [1] [%]	EC50 (GLP-1 receptor CHO-K1 cells, cAMP HTRF, 7 minutes incubation at room temperature) [nM]	Emax (%) (cAMP stimulation ratio, 665/620 ratio with Exendin-4 converted to 100%)	SMILES
< 100	96.3	–	–	N#Cc1ccc(COc2cccc(NC3CCN(Cc4nc5ccc(C(=O)O)cc5n4C[C@@H]4CCO4)CC3)n2)c(F)c1 [Example 1, (S)-2-((4-((6-((4-cyano-2-fluorobenzyl)oxy)pyridin-2-yl)amino)piperidin-1-yl)methyl)-1-(oxetan-2-ylmethyl)-1H-benzo[d]imidazole-6-carboxylic acid]
100 to 200	102	–	–	N#Cc1ccc(COc2cccc(NC3CCN(Cc4nc5ccc(C(=O)O)cc5n4C[C@@H]4CCO4)CC3)c2)c(F)c1 [Example 2, (S)-2-((4-((3-((4-cyano-2-fluorobenzyl)oxy)phenyl)amino)piperidin-1-yl)methyl)-1-(oxetan-2-ylmethyl)-1H-benzo[d]imidazole-6-carboxylic acid]
100 to 200	107	–	–	O=C(O)c1ccc2nc(CN3CCC(Oc4cccc(NCc5ccc(Cl)cc5F)n4)CC3)n(C[C@@H]3CCO3)c2c1 [Example 5, (S)-2-((4-((6-((4-chloro-2-fluorobenzyl)amino)pyridin-2-yl)oxy)piperidin-1-yl)methyl)-1-(oxetan-2-ylmethyl)-1H-benzo[d]imidazole-6-carboxylic acid]
< 100	99.6	–	–	N#Cc1ccc(COc2cc(N[C@@H]3CCN(Cc4nc5ccc(C(=O)O)cc5n4C[C@@H]4CCO4)C3)ccc2F)nc1 [Example 8, 2-(((R)-3-((3-((5-cyanopyridin-2-yl)methoxy)-4-fluorophenyl)amino)pyrrolidin-1-yl)methyl)-1-(((S)-oxetan-2-yl)methyl)-1H-benzo[d]imidazole-6-carboxylic acid]
< 100	103	–	–	O=C(O)c1ccc2nc(CN3CCC(Nc4cccc(OCc5ccc(Cl)cc5F)n4)CC3)n(C[C@@H]3CCO3)c2c1 [Example 12, (S)-2-((4-((6-((4-chloro-2-fluorobenzyl)oxy)pyridin-2-yl)amino)piperidin-1-yl)methyl)-1-(oxetan-2-ylmethyl)-1H-benzo[d]imidazole-6-carboxylic acid]
< 100	94.5	–	–	O=C(O)c1ccc2nc(CN3CCC(Nc4cccc(OCc5ccc(Cl)cc5F)n4)CC3)n(C[C@@H]3CCO3)c2n1 [Example 13]
< 100	99.6	–	–	O=C(O)c1ccc2nc(CN3CC[C@@H](Nc4cccc(OCc5ccc(Cl)cc5F)n4)C3)n(C[C@@H]3CCO3)c2c1 [Example 15, 2-(((R)-3-((6-((4-chloro-2-fluorobenzyl)oxy)pyridin-2-yl)amino)pyrrolidin-1-yl)methyl)-1-(((S)-oxetan-2-yl)methyl)-1H-benzo[d]imidazole-6-carboxylic acid]
< 100	95	–	–	O=C(O)c1ccc2nc(CN3CC[C@@H](Nc4cccc(OCc5ccc(Cl)cc5F)n4)C3)n(C[C@@H]3CCO3)c2n1 [Example 16, 2-(((R)-3-((6-((4-chloro-2-fluorobenzyl)oxy)pyridin-2-yl)amino)pyrrolidin-1-yl)methyl)-3-(((S)-oxetan-2-yl)methyl)-3H-imidazo[4,5-b]pyridine-5-carboxylic acid]
100 to 200	97	–	–	N#Cc1ccc(COc2cncc(NC3CCN(Cc4nc5ccc(C(=O)O)cc5n4C[C@@H]4CCO4)CC3)n2)c(F)c1 [Example 19, (S)-2-((4-((6-((4-cyano-2-fluorobenzyl)oxy)pyrazin-2-yl)amino)piperidin-1-yl)methyl)-1-(oxetan-2-ylmethyl)-1H-benzo[d]imidazole-6-carboxylic acid]
< 100	96.3	–	–	N#Cc1ccc(COc2cccc(N[C@@H]3CCN(Cc4nc5ccc(C(=O)O)cc5n4C[C@@H]4CCO4)C3)n2)c(F)c1 [Example 20, 2-((3-((6-((4-cyano-2-fluorobenzyl)oxy)pyridin-2-yl)amino)pyrrolidin-1-yl)methyl)-1-(((S)-oxetan-2-yl)methyl)-1H-benzo[d]imidazole-6-carboxylic acid]
100 to 200	99.8	–	–	N#Cc1ccc(COc2nccc(N[C@@H]3CCN(Cc4nc5ccc(C(=O)O)cc5n4C[C@@H]4CCO4)C3)n2)c(F)c1 [Example 23, 2-(((R)-3-((2-((4-cyano-2-fluorobenzyl)oxy)pyrimidin-4-yl)amino)pyrrolidin-1-yl)methyl)-1-(((S)-oxetan-2-yl)methyl)-1H-benzo[d]imidazole-6-carboxylic acid]
< 100	99.2	–	–	O=C(O)c1ccc2nc(CN3CC[C@@H](Nc4ncc(F)c(OCc5ccc(Cl)cc5F)n4)C3)n(C[C@@H]3CCO3)c2c1 [Example 29, 2-(((R)-3-((4-((4-chloro-2-fluorobenzyl)oxy)-5-fluoropyrimidin-2-yl)amino)pyrrolidin-1-yl)methyl)-1-(((S)-oxetan-2-yl)methyl)-1H-benzo[d]imidazole-6-carboxylic acid]
–	–	< 100	96.94	N#Cc1ccc(COc2cccc(N[C@@H]3CCN(Cc4nc5ccc(C(=O)O)cc5n4C[C@@H]4CCO4)C3)n2)c(F)c1 [Example 32, 2-(((R)-3-((6-((4-cyano-2-fluorobenzyl)oxy)pyridin-2-yl)amino)pyrrolidin-1-yl)methyl)-1-(((S)-oxetan-2-yl)methyl)-1H-benzo[d]imidazole-6-carboxylic acid]
< 100	127	–	–	N#Cc1ccc(COc2cccc(N[C@@H]3CCN(Cc4nc5ccc(C(=O)O)cc5n4C[C@@H]4CCO4)C3)c2)c(F)c1 [Example 37, 2-(((R)-3-((3-((4-cyano-2-fluorobenzyl)oxy)phenyl)amino)pyrrolidin-1-yl)methyl)-1-(((S)-oxetan-2-yl)methyl)-1H-benzo[d]imidazole-6-carboxylic acid]
100 to 200	96.6	–	–	O=C(O)c1ccc2nc(CN3CCC(Nc4cccc(OCc5ccc(Cl)cn5)n4)CC3)n(C[C@@H]3CCO3)c2c1 [Example 39, (S)-2-((4-((6-((5-chloropyridin-2-yl)methoxy)pyridin-2-yl)amino)piperidin-1-yl)methyl)-1-(oxetan-2-ylmethyl)-1H-benzo[d]imidazole-6-carboxylic acid]
< 100	110	–	–	N#Cc1ccc(COc2ccnc(N[C@@H]3CCN(Cc4nc5ccc(C(=O)O)cc5n4C[C@@H]4CCO4)C3)n2)c(F)c1 [Example 43, 2-(((R)-3-((4-((4-cyano-2-fluorobenzyl)oxy)pyrimidin-2-yl)amino)pyrrolidin-1-yl)methyl)-1-(((S)-oxetan-2-yl)methyl)-1H-benzo[d]imidazole-6-carboxylic acid]
